Assay results: PMC11413854, “Reversible Control of Native GluN2B-Containing NMDA Receptors with Visible Light” (ACS Chemical Neuroscience, 2024)
Like-named read-outs stand apart in the source and are kept apart here.

Target: T1, GluN1/GluN2B NMDA receptors (UniProt P35439+Q01097)
T1 construct: expressed in transfected cells; host or cells: Xenopus laevis oocytes (nuclear cDNA injection)
Experiment: TEVC electrophysiology on Xenopus oocytes expressing wt GluN1/GluN2B NMDARs
Assay type: cell-based, rat GluN1, mouse GluN2B
Conditions: for Relative current for theoretical DRC 9% trans / Relative current for theoretical DRC 18% trans / remaining activity at 0.03 µM / remaining activity at 0.1 µM / remaining activity at 0.3 µM / remaining activity at 2 µM: GluN1/GluN2B wt; for Relative current for theoretical DRC 9% trans: theoretical for 350 nm PSS; for Relative current for theoretical DRC 18% trans: theoretical for 365 nm PSS; for remaining activity at 0.03 µM / remaining activity at 0.1 µM / remaining activity at 0.3 µM / remaining activity at 2 µM: Sup. Fig. 3F, read-out: Relative current (IOpto/I0); for remaining activity at 0.03 µM: [OptoNAM-3] 0.03 µM; for remaining activity at 0.1 µM: [OptoNAM-3] 0.1 µM
Excerpt: The activity of OptoNAM-3 was functionally monitored by electrophysiology on Xenopus oocytes (see Methods). To assess the light-dependent effect, we tested the activities of the dark PSS (mostly trans) and the UV PSS (mostly cis, see above) separately. For each concentration, we prepared a solution divided into two samples: one in which the compound was kept in the dark for the duration of the experiment (dark PSS state); and the other that was preilluminated with either 350 or 365 nm light (350 or 365 nm PSS) and then kept away from the light for the duration of the experiment in order to avoid photoisomerization of the compounds by ambient light (see Methods). […] We generated dose–response curves of OptoNAM-3 dark and UV PSS on wild-type (wt) GluN1/GluN2B NMDA receptors (Figure 3A) in the presence of saturating concentrations of agonists (100 μM glutamate and glycine).
We used cDNA coding for rat GluN1–1a (named GluN1 herein) (GenBank: U08261.1), rat GluN2A (GenBank: D13211.1), mouse GluN2B (GenBank: D10651.2), rat GluA1 flop (GenBank: M36418.2), and rat Myc-GluA2(Q)-flip (GenBank: AF164344.1) cloned into pcDNA3-based expression plasmids. GluK2 (GenBank: Z11548.1) corresponds to the fully RNA-edited version.[80] The GluN2B-ΔNTD construct is from ref[45] and GluN2B–N615K is from ref[81]. Single mutants GluN2B-Q110G and GluN1-L135H were from ref[19]. The GluA2 cDNA contains a Myc tag ([…]) fused between the signal peptide and the N-terminus sequences, and the GluA2 subunit is […] for its Q/R/N site (GluA2(Q)) to allow permeation of homomeric GluA2 receptors.[2] cDNAs coding for rat GluN2C (GenBank: M91563.1) and GluN2D subunits (GenBank: L31611.1) were in prK5 plasmids.
Oocytes from Xenopus laevis were used for heterologous expression of recombinant NMDA receptors studied using a two-electrode voltage clamp (TEVC). Female Xenopus laevis were housed and ovary bags harvested according to the European Union guidelines (husbandry authorizations #C75–05–31 and #D75–05–31; project authorizations #05137.02; and Apafis #28867–2020121814485893). Fragments of ovary bags were also purchased from the “Centre de Ressources Biologiques Xenopes” (now TEFOR, Paris Saclay, France) and from the European Xenopus Resource Center (EXRC, Portsmouth, UK). Xenopus laevis oocytes were harvested and prepared as previously described in ref[82].
Expression of recombinant NMDA receptors was obtained by oocyte nuclear coinjection of 37 nL of a mixture of cDNAs (at 30 ng/μL) coding for GluN1–1a and various GluN2 subunits (ratio 1:1). The protocol in ref[43] was followed for the expression of GluN1/GluN2A/GluN2B triheteromers. The oocytes were transferred in 96-well plates filled with Barth solution (in mM: 88 NaCl, 1 KCl, 0.33 Ca(NO3)2, 0.41 CaCl2, 0.82 MgSO4, 2.4 NaHCO3, and 7.5 HEPES, pH adjusted to 7.3 with NaOH), supplemented with gentamicin ([…]) and 50 μM APV, a selective NMDA receptor antagonist. Plates were then stored at 18 °C for 24 h for GluN1/GluN2A expression and for 48––72 h for the expression of GluN1/Glu2B, GluN1/GluN2A/GluN2B, and mutants.
TEVC recordings were performed 1–3 days following injection. TEVC recordings were performed using an Oocyte Clamp amplifier OC-725 (Warner Instruments) and computer-controlled via a 1440A Digidata (Molecular Devices). Currents were sampled at 100 Hz and low-pass-filtered at 20 Hz using an 8-pole Bessel filter (900 Series, Frequency Devices Inc.).

[1] = OptoNAM-3 dark PSS (trans) + 0.2 µM ifenprodil
[2] = OptoNAM-3 dark PSS (trans), no ifenprodil
[3] = preilluminated in solution, Xenopus oocytes

T1 sequence (Q01097 27-1482, other chains not shown): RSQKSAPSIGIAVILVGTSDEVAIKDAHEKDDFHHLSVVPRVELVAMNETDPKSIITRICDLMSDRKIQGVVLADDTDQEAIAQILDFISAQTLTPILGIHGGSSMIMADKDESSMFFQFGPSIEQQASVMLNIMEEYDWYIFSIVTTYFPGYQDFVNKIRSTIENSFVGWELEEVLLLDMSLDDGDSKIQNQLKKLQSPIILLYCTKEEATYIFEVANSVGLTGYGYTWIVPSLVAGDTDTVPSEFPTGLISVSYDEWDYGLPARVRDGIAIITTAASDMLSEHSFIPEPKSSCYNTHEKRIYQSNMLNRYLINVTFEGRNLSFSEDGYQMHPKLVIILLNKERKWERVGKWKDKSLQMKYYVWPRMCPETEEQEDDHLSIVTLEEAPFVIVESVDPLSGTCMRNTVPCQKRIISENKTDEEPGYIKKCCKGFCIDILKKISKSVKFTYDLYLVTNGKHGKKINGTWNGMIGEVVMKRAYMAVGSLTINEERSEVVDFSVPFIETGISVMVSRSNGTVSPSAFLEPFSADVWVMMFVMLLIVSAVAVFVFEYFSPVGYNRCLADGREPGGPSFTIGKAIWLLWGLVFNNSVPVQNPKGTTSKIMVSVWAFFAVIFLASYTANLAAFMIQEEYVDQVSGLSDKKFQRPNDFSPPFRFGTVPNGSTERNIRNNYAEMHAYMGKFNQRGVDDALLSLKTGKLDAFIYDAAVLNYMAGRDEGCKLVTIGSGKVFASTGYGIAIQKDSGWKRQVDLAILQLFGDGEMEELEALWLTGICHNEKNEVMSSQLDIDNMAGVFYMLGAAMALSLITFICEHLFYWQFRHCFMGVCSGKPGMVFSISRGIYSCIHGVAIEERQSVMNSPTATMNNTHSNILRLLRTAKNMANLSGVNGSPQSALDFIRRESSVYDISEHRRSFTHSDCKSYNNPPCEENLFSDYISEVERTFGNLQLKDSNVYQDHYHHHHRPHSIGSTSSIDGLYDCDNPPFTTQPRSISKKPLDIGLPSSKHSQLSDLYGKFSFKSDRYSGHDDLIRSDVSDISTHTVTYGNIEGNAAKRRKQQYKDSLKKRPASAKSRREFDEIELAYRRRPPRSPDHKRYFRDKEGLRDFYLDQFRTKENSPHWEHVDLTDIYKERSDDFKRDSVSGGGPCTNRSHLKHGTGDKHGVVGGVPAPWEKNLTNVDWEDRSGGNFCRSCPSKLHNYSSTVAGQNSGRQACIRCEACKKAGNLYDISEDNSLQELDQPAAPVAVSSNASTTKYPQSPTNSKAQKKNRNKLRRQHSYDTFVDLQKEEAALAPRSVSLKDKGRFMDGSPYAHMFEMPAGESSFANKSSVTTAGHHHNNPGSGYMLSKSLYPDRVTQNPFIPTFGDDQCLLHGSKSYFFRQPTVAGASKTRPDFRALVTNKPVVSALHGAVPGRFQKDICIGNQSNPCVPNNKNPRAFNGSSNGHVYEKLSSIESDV

Relative current for theoretical DRC 9% trans ([OptoNAM-3] 1 µM): 0.775 | Relative current for theoretical DRC 9% trans ([OptoNAM-3] 2 µM): 0.656 | Relative current for theoretical DRC 9% trans ([OptoNAM-3] 3 µM): 0.570 | Relative current for theoretical DRC 9% trans ([OptoNAM-3] 5 µM): 0.452 | Relative current for theoretical DRC 18% trans ([OptoNAM-3] 0.025 µM): 0.980 | Relative current for theoretical DRC 18% trans ([OptoNAM-3] 0.05 µM): 0.965 | Relative current for theoretical DRC 18% trans ([OptoNAM-3] 0.125 µM): 0.924 | Relative current for theoretical DRC 18% trans ([OptoNAM-3] 0.22 µM): 0.880 | Relative current for theoretical DRC 18% trans ([OptoNAM-3] 0.3 µM): 0.848 | Relative current for theoretical DRC 18% trans ([OptoNAM-3] 0.5 µM): 0.775 | Relative current for theoretical DRC 18% trans ([OptoNAM-3] 1 µM): 0.656 | Relative current for theoretical DRC 18% trans ([OptoNAM-3] 2 µM): 0.500 | Relative current for theoretical DRC 18% trans ([OptoNAM-3] 3 µM): 0.416 | Relative current for theoretical DRC 18% trans ([OptoNAM-3] 5 µM): 0.307 | Relative current for theoretical DRC 18% trans ([OptoNAM-3] 30 µM): 0.073 | remaining activity at 0.03 µM [1]: 93.3% | remaining activity at 0.1 µM [1]: 89% | remaining activity at 0.3 µM (OptoNAM-3 dark PSS (trans) + 0.2 µM ifenprodil, [OptoNAM-3] 0.3 µM): 77.3% | remaining activity at 2 µM (OptoNAM-3 dark PSS (trans) + 0.2 µM ifenprodil, [OptoNAM-3] 2 µM): 32.6% | remaining activity at 0.03 µM [2]: 95.1% | remaining activity at 0.1 µM [2]: 84.9% | remaining activity at 0.3 µM (OptoNAM-3 dark PSS (trans), no ifenprodil, [OptoNAM-3] 0.3 µM): 63.5% | remaining activity at 2 µM (OptoNAM-3 dark PSS (trans), no ifenprodil, [OptoNAM-3] 2 µM): 14.7% | Mean Relative current (IOpto/I0) ([OptoNAM-3] 0.025 µM, 365 nm PSS): 0.933 | Mean Relative current (IOpto/I0) ([OptoNAM-3] 0.025 µM, dark PSS (trans)): 0.887 | Mean Relative current (IOpto/I0) ([OptoNAM-3] 0.050 µM, 365 nm PSS): 0.910 | Mean Relative current (IOpto/I0) ([OptoNAM-3] 0.050 µM, dark PSS (trans)): 0.827 | Mean Relative current (IOpto/I0) ([OptoNAM-3] 0.125 µM, 350 nm PSS): 0.907 | Mean Relative current (IOpto/I0) ([OptoNAM-3] 0.125 µM, 365 nm PSS): 0.912 | Mean Relative current (IOpto/I0) ([OptoNAM-3] 0.125 µM, dark PSS (trans)): 0.758 | Mean Relative current (IOpto/I0) ([OptoNAM-3] 0.220 µM, 365 nm PSS): 0.880 | Mean Relative current (IOpto/I0) ([OptoNAM-3] 0.220 µM, dark PSS (trans)): 0.592 | Mean Relative current (IOpto/I0) ([OptoNAM-3] 0.300 µM, 350 nm PSS): 0.918 | Mean Relative current (IOpto/I0) ([OptoNAM-3] 0.300 µM, 365 nm PSS): 0.841 | Mean Relative current (IOpto/I0) ([OptoNAM-3] 0.300 µM, dark PSS (trans)): 0.581 | Mean Relative current (IOpto/I0) ([OptoNAM-3] 0.470 µM, 350 nm PSS): 0.900 | Mean Relative current (IOpto/I0) ([OptoNAM-3] 0.500 µM, 365 nm PSS): 0.666 | Mean Relative current (IOpto/I0) ([OptoNAM-3] 1.000 µM, 350 nm PSS): 0.860 | Mean Relative current (IOpto/I0) ([OptoNAM-3] 1.000 µM, 365 nm PSS): 0.644 | Mean Relative current (IOpto/I0) ([OptoNAM-3] 1.000 µM, dark PSS (trans)): 0.307 | Mean Relative current (IOpto/I0) ([OptoNAM-3] 2.000 µM, 350 nm PSS): 0.656 | Mean Relative current (IOpto/I0) ([OptoNAM-3] 2.000 µM, 365 nm PSS): 0.433 | Mean Relative current (IOpto/I0) ([OptoNAM-3] 2.000 µM, dark PSS (trans)): 0.141 | Mean Relative current (IOpto/I0) ([OptoNAM-3] 3.000 µM, 350 nm PSS): 0.613 | Mean Relative current (IOpto/I0) ([OptoNAM-3] 3.000 µM, 365 nm PSS): 0.375 | Mean Relative current (IOpto/I0) ([OptoNAM-3] 3.000 µM, dark PSS (trans)): 0.098 | Mean Relative current (IOpto/I0) ([OptoNAM-3] 5.000 µM, 350 nm PSS): 0.446 | Mean Relative current (IOpto/I0) ([OptoNAM-3] 5.000 µM, 365 nm PSS): 0.267 | Mean Relative current (IOpto/I0) ([OptoNAM-3] 5.000 µM, dark PSS (trans)): 0.092 | Mean Relative current (IOpto/I0) ([OptoNAM-3] 30.000 µM, 365 nm PSS): 0.034 | Mean Relative current (IOpto/I0) ([OptoNAM-3] 30.000 µM, dark PSS (trans)): 0.00423 | IC50 (control curve of the ifenprodil competition experiment, read-out: IC50 in the dark in absence of ifenprodil): 0.46 ± 0.06 µM | increase of IC50 by 0.2 µM ifenprodil (dark): ~ 2 fold | IC50 (dark PSS (trans), 100 µM glutamate + glycine, Xenopus oocytes, read-out: IC50 on GluN1/GluN2B receptors in the dark): 0.38 ± 0.03 µM | IC50 (dark PSS (trans), Xenopus oocytes, read-out: IC50 on GluN1/GluN2B receptors in the dark): 0.38 µM | UV/dark IC50 ratio (350 nm PSS vs dark) [3]: 11.5 fold | UV/dark IC50 ratio (365 nm PSS vs dark) [3]: 4.5 fold | IC50 (range over HEK cells and Xenopus oocytes, read-out: IC50 in the dark (trans isomer)): 0.15 to 0.38 µM | activity of the cis isomer on GluN1/GluN2B NMDARs (theoretical dose-response curve of a pure cis population calculated from 365 and 350 nm PSS): no inhibitory activity
Structure (SMILES): c1ccc(/N=N/c2ccc(CCNc3ccncc3)cc2)cc1 [OptoNAM-3, (E)-N-(4-(Phenyldiazenyl)phenethyl)pyridin-4-amine]
